Experimental data taken from patent publication US20040266732A1, “Therapeutic agents, methods, and treatments” (priority 2002, published 2004).
pIC50: −log10 of the molar value.

Tests used:
Experiment in all cases: NCI 60 cell-line test
Format in all cases: cell-based, human
SF-268 = SF-268 (CNS Cancer)
Outline: (§1)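 SRB protein stain, A515, TCA-fixed; 48 h continuous drug exposure, ≥5 concentrations at 10-fold dilutions; RPMI 1640/5% FBS. GI50 = 50% reduction in net protein increase vs control; TGI at Ti=Tz; LC50 at 50% loss vs time zero.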

MALME-3M = MALME-3M (Melanoma)
Outline: as §1

PC-3 = PC-3 (Prostate Cancer)
Outline: as §1

UACC-257 = UACC-257 (Melanoma)
Outline: as §1

HL-60 (TB) = HL-60 (TB) (Leukemia)
T-47D = T-47D (Breast Cancer)
Outline: as §1

A549/ATCC = A549/ATCC (Non-Small Cell Lung Cancer)
Outline: as §1

SN12C = SN12C (Renal Cancer)
Outline: as §1

SK-OV-3 = SK-OV-3 (Ovarian Cancer)
Outline: as §1

SK-MEL-5 = SK-MEL-5 (Melanoma)
Outline: as §1

MDA-MB-435 = MDA-MB-435 (Breast Cancer)
Outline: as §1

DU-145 = DU-145 (Prostate Cancer)
Outline: as §1

OVCAR-5 = OVCAR-5 (Ovarian Cancer)
Outline: as §1

[1] = read-out: LC50 (the source's name)

In the case of `CC1(C)C2CC[C@@]1(CS(=O)(=O)N(C1CCCCC1)C1CCCCC1)C(O)C2` (stereo partly drawn) [MT103], the TGI (SF-268) was >1.00E−04, the pIC50 (SF-268; read-out: G150) was 4.45 and the CC50 (SF-268; [1]) was > 100 µM. The TGI (MALME-3M) was 4.44E−05, the pIC50 (MALME-3M; read-out: G150) was 4.88 and the CC50 (MALME-3M; [1]) was > 100 µM. For the same compound, the TGI (PC-3) was >1.00E−04, the pIC50 (PC-3; read-out: G150) was 4.56 and the CC50 (PC-3; [1]) was > 100 µM. For the same compound, the TGI (UACC-257) was 9.53E−05, the pIC50 (UACC-257; read-out: G150) was 4.55 and the CC50 (UACC-257; [1]) was > 100 µM. For the same compound, the TGI (HL-60 (TB)) was 8.33E−05, the pIC50 (HL-60 (TB); read-out: G150) was 4.72 and the CC50 (HL-60 (TB); [1]) was > 100 µM. For the same compound, the TGI (T-47D) was >1.00E−04, the pIC50 (T-47D; read-out: G150) was 4.21 and the CC50 (T-47D; [1]) was > 100 µM. The TGI (A549/ATCC) was >1.00E−04, the pIC50 (A549/ATCC; read-out: G150) was 4.55 and the CC50 (A549/ATCC; [1]) was > 100 µM. The TGI (SN12C) was >1.00E−04, the pIC50 (SN12C; read-out: G150) was 4.48 and the CC50 (SN12C; [1]) was > 100 µM. The TGI (SK-OV-3) was >1.00E−04, the pIC50 (SK-OV-3; read-out: G150) was 4.08 and the CC50 (SK-OV-3; [1]) was > 100 µM. The TGI (SK-MEL-5) was 3.61E−05, the pIC50 (SK-MEL-5; read-out: G150) was 4.77 and the CC50 (SK-MEL-5; [1]) was 77.7 µM. For the same compound, the TGI (MDA-MB-435) was 9.88E−05, the pIC50 (MDA-MB-435; read-out: G150) was 4.55 and the CC50 (MDA-MB-435; [1]) was > 100 µM. The TGI (DU-145) was >1.00E−04, the pIC50 (DU-145; read-out: G150) was 4.52 and the CC50 (DU-145; [1]) was > 100 µM. For the same compound, the TGI (OVCAR-5) was 5.70E−05, the pIC50 (OVCAR-5; read-out: G150) was 4.63 and the CC50 (OVCAR-5; [1]) was > 100 µM.
